The assay deals with T1, Dipeptidyl peptidase 3 (Homo sapiens, UniProt Q9NY33).
T1 sequence (Q9NY33 whole entry): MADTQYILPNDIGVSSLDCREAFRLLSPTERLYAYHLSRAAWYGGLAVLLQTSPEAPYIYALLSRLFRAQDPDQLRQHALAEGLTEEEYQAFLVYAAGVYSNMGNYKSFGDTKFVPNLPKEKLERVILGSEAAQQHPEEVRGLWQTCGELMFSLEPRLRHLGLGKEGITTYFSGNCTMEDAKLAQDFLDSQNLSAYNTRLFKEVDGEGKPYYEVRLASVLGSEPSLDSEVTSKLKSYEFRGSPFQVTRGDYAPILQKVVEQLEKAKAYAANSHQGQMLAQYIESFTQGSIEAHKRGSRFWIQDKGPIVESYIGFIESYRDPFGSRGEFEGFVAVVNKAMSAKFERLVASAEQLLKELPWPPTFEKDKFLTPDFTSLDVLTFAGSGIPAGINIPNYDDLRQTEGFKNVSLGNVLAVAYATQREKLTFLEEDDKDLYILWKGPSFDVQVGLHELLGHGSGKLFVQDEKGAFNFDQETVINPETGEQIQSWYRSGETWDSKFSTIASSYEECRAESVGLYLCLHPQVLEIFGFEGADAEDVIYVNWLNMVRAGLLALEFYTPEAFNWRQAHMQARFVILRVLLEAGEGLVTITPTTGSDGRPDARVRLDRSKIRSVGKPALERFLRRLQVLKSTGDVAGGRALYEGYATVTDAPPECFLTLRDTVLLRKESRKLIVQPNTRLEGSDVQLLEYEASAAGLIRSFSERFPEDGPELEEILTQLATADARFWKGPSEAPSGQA
The assay is described as follows: DPP III Enzyme Activity Assay. The settings on record: pH 7.4; 37 °C. On the procedure: The inhibitory activity of flavonoids toward human DPP III was assayed in a 50 mM Tris-HCl buffer, pH 7.4. In brief, recombinant human DPP III (0.29 nM) was preincubated with increasing concentrations of flavonoid first for 1 min at 25°C and then for 3 min at 37°C. The enzymatic reaction was started with Arg-Arg-NA (40 μM) as a substrate, and after the 15 min incubation at 37°C in a water bath, the reaction was stopped and the absorbance was measured using the spectrophotometric method described above[Abramić et al., Biol. Chem. Hoppe-Seyler., 369:29]. The stock solutions of flavonoids were prepared daily in dimethyl sulfoxide (DMSO, Sigma-Aldrich).

Structures are written as SMILES. pIC50: −log10 of the molar value.

Turning to `O=c1c(O)c(-c2ccc(O)cc2)oc2cc(O)cc(O)c12`, the negative-log IC50 (pIC50) is 4.48.

Consider `O=c1c(O)c(-c2ccc(O)cc2O)oc2cc(O)cc(O)c12` [2-(2,4-dihydroxyphenyl)-3,5,7-trihydroxychromen-4-one], for which the negative-log IC50 (pIC50) is 4.07.

With `O=c1c(O)c(-c2ccc(O)c(O)c2)oc2cc(O)cc(O)c12` [2-(3,4-dihydroxyphenyl)-3,5,7-trihydroxy-chromone;hydrate], the pIC50 is 4.13.

`O=c1c(O)c(-c2ccc(O)c(O)c2)oc2cc(O)ccc12` [2-(3,4-dihydroxyphenyl)-3,7-dihydroxy-chromen-4-one] showed a pIC50 of 4.60.

Regarding `O=c1cc(-c2ccc(O)c(O)c2)oc2cc(O)cc(O)c12` [2-(3,4-dihydroxyphenyl)-5,7-dihydroxy-4H-chromen-4-one], the negative logarithm of the IC50 (pIC50) is 4.66.

Take `O=c1c(O)c(-c2ccccc2)oc2ccc(O)cc12` [3,6-dihydroxy-2-phenyl-4H-chromen-4-one]: the pIC50 was 4.25.

`O=c1c(O)c(-c2ccccc2)oc2cc(O)ccc12` [3,7-dihydroxy-2-phenyl-4H-chromen-4-one] gave a pIC50 of 4.01.

Consider `O=c1c(O)c(-c2ccccc2)oc2ccccc12` [3-hydroxy-2-phenyl-4H-chromen-4-one], for which the pIC50 was 3.73.

The compound `O=c1cc(-c2ccccc2)oc2cc(O)cc(O)c12` [5,7-dihydroxy-2-phenyl-4H-chromen-4-one] gave a pIC50 of 3.91.

With `O=c1cc(-c2ccccc2)oc2ccc(O)cc12` [6-hydroxy-2-phenyl-4H-chromen-4-one], the pIC50 is 4.09.

In turn, `O=C1C[C@@H](c2ccccc2)Oc2ccccc21` [Flavanone] showed a negative-log IC50 (pIC50) of 3.36.

For `O=c1cc(-c2ccc(O)cc2)oc2cc(O)cc(O)c12` [Naringenin, 18], the pIC50 was 4.27.

The compound `O=c1c(-c2ccc(O)cc2)coc2cc(O)cc(O)c12` [Prunetol] gave a negative-log IC50 (pIC50) of 4.44.

For `O=c1cc(-c2ccccc2)oc2ccccc12` [flavone], the pIC50 is 3.53.

On to `O=c1c(O)c(-c2ccccc2)oc2cc(O)cc(O)c12` [norizalpinin], for which the pIC50 is 4.63.

The values are drawn from BindingDB's records for doi:10.1111/cbdd.12887 (Josip Juraj Strossmayer University of Osijek, 2017).
